Test results published in patent US20050058695A1, “Norethindrone sustained release formulations and methods associated therewith” (Watson Pharmaccuticals, Inc., priority 2002, published 2005).

Key:
[1] = cited from earlier work
[2] = in situ conversion of norethindrone acetate to norethindrone in the transdermal formulation; format: physicochemical

For C#C[C@]1(OC(C)=O)CC[C@H]2[C@@H]3CCC4=CC(=O)CC[C@@H]4[C@H]3CC[C@@]21C [NEA, norethindrone acetate], the “time at which maximum skin flux for NEA is attained” value ([1]; FIG. 3 of U.S. Pat. No. 5,980,932) is given as “only after the second day of administration”, the “time at which maximum NEA skin flux is obtained following administration” value ([1]; FIGS. 1 and 2 of U.S. Patent Application Publication No. 2003/0152615, in h) is given as roughly 48 and the “conversion to norethindrone in situ in the transdermal formulation” value [2] is given as “does not convert to norethindrone in situ”.
